In patent US5480894A, “3-hydroxypyridin-4-one derivatives as chelating agents” (British Technology Group Limited, priority 1992, dated 1996):
“And” between values parts separate entries of the source, which are not always exact repeats. Identical values can stand only once. Like-named read-outs stand apart in the source and are kept apart here.

Assay: Partition coefficient Kpart between n-octanol and aqueous tris hydrochloride
Format: physicochemical
Conditions: n-octanol / aqueous tris hydrochloride (20 mM, pH 7.4); for logD: octanol/tris hydrochloride 20 mm
Method: The partition coefficients of four or five samples of each of the compounds of Examples 2 and 4 were measured using essentially the procedure described in Example 25 of UK Patent No. 2 136 807. For comparative purposes a similar measurement was made for the compound 1-(2-acetoxyethyl)-2-ethyl-3-hydroxypyridin-4-one which was prepared by an analogous procedure to that of Example 5 using acetyl chloride in place of isobutyryl chloride. The results obtained for the partition coefficient Kpart, being the ratio (concentration of compound in n-octanol)/concentration of compound in aqueous phase on partition between n-octanol and aqueous tris hydrochloride (20 mM, pH 7.4), are shown in the Table.

[1] = pH 7.4, mean of four or five samples, read-out: partition coefficient Kpart, Mean ± S.E. (converted)

Row | SMILES | partition coefficient Kpart (concentration in n-octanol / concentration in aqueous phase), individual samples (individual samples 1-5, listed as (CH3)2 CHCOO) | logD [1] | logD (individual samples 1-5, read-out: partition coefficient Kpart (concentration in n-octanol / concentration in aqueous phase), individual samples (converted)) | partition coefficient Kpart (concentration in n-octanol / concentration in aqueous phase), individual samples (individual samples 1-5, listed as (CH3)3 CCOO) | partition coefficient Kpart, Mean ± S.E. (mean of four or five samples) | partition coefficient Kpart (concentration in n-octanol / concentration in aqueous phase), individual samples (individual samples 1-5)
1 | CCc1c(O)c(=O)ccn1CCOC(=O)C(C)C [Example 4, 2-ethyl-3-hydroxy-1-[2-(α-methylpropionyloxy)ethyl]pyridin-4-one] | 4.541 and 4.224 and 4.797 | 0.667 | 0.699 |  |  | 
2 | CCc1c(O)c(=O)ccn1CCOC(=O)C(C)(C)C [Example 2, 2-ethyl-3-hydroxy-1-(2-pivaloyloxyethyl)pyridin-4-one] |  |  |  | 5.104 and 7.992 and 3.870 and 6.742 and 6.855 | 6.113 ± 1.622 | 
3 | CCc1c(O)c(=O)ccn1CCOC(C)=O [CH3 COO, 1-(2-acetoxyethyl)-2-ethyl-3-hydroxypyridin-4-one, reference compound] |  | 0.0366 |  |  |  | 1.500 and 0.948 and 0.940 and 0.962
